Measurements published in US8557805B2, “Fused ring compound and use thereof” (Takeda Pharmaceutical Company Limited, priority 2008, dated 2013).

Tests used:
[1] = biological target: T1, human liver GK (GST-hLGK1) (Homo sapiens, UniProt P35557); experiment: Determination of GK activity value (Mant-ATP to Mant-ADP conversion, capillary electrophoresis); assay type: biochemical; conditions: reaction started with 25 mM D-glucose solution, 37° C., 60 min, concentration at midpoint between maximum activity value and control group activity value
T1 construct: with a BamHI site added to immediately before the initiation codon; made in house; host or cells: Escherichia coli BL21 (Stratagene), plasmid pGEX6P-2/hLGK1
T1 sequence (P35557 1-464 isoform P35557-3): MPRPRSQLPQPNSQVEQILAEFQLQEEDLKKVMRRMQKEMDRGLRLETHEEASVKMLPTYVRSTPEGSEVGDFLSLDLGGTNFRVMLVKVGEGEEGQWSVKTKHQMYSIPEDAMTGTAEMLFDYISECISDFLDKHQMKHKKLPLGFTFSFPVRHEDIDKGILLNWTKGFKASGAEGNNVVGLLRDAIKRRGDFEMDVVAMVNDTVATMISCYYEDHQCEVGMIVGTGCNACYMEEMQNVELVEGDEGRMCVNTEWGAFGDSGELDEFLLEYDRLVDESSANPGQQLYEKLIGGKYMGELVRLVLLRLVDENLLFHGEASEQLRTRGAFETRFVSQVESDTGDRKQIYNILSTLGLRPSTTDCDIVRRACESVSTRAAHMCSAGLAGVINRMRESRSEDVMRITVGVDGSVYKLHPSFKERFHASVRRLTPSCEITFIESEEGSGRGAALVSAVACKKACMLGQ
Procedure: Plasmid DNA to be used for the expression of a protein (GST-hLGK1) containing GST (Glutathione S-transferase) added to the amino terminal of human liver GK in Escherichia coli was prepared as follows.
First, PCR was performed using human liver cDNA (Marathon Ready cDNA, Clontech Laboratories, Inc.) as a template and two kinds of synthetic DNAs (5′-[…]-3′ (SEQ ID NO: 1) and 5′-[…]-3′ (SEQ ID NO: 2)), and the obtained DNA fragment was closed using a TOPO TA Cloning Kit (Invitrogen Corporation). PCR was performed using the obtained plasmid DNA as a template and a synthetic DNA (5′-[…] CAGAG-3′ (SEQ ID NO: 3)) with a BamHI site added to immediately before the initiation codon, and a synthetic DNA (5′-[…]-3′ (SEQ ID NO: 4)) with an EcoRI site added to immediately after the stop codon. The obtained DNA fragment was subcloned to pGEX6P-2 (Amersham Biosciences K.K.) cleaved with BamHI and EcoRI to give a plasmid (pGEX6P-2/hLGK1) for expression of human liver GK.
BL21 strain (Stratagene) transformed with pGEX6P-2/hLGK1 obtained in (1) was cultured with shaking at 37° C. for 14 hr in a 200 ml Erlenmeyer flask containing 50 ml of 100 μg/ml ampicillin-containing LB medium. The culture medium (25 ml) was diluted with 225 ml of 100 μg/ml ampicillin-containing LB medium, and further cultured with shaking at 37° C. for 1 hr in a 1 L Erlenmeyer flask. After culture, the Erlenmeyer flask was cooled on ice, 125 μL of 100 mM isopropyl-thio-β-D-galactopyranoside (IPTG) was added (final concentration 50 μM), and cultured at 17° C. for 20 hr. The culture medium was centrifuged, and the obtained fungus was disrupted by ultrasonication. The object protein (GST-hLGK1) was purified from the supernatant using Glutathione Sepharose 4B (Amersham Biosciences K.K.).
A solution (5 μL) of test compound in 50% dimethyl sulfoxide was added to each well of 384 well black plate (Nalge Nunc International K.K.). Then, a solution (35 μL) obtained by diluting GST-hLGK1 obtained in (2) with measurement buffer (containing 50 mM HEPES (pH 7.4), 200 mM KCl, 5 mM MgCl2, 2.5 mM DTT and 50 μM 2′-(or-3′)-O—(N-methylanthraniloyl)adenosine 5′-triphosphate (Mant-ATP) (Jena Bioscience GmbH)) to 6 μg/mL was added to each well.
Each well was stood at 37° C. for 10 min, and 25 mM D-glucose solution (10 μL) was added to start the reaction.
Each well after the reaction was stood at 37° C. for 60 min, and the reaction was quenched by adding 25 μL of a quenching solution (containing 200 mM HEPES (pH 7.4), 20 mM MgCl2, 200 mM EDTA, 0.03% Triton-X 100, 0.3% Coating 3 reagent (Caliper Life Sciences, Inc.)).
2′-(or -3′)-O—(N-methylanthraniloyl)adenosine 5′-triphosphate (Mant-ATP, substrate) and Mant-ADP (reaction resultant product) were separated from each well after the reaction by a microchip type capillary electrophoresis apparatus 250 HTS (Caliper Life Sciences, Inc.). The reaction rate [(reaction resultant product peak height)/(reaction resultant product peak height+substrate peak height)×100(%)] was calculated from the ratio of the substrate peak height and reaction resultant product peak height obtained by fluorescence detection (excitation wavelength 355 nm, measurement wavelength 460 nm) and used as the index of GK activity.
3.5 As a control group, the reaction rate was calculated in the same manner as above except that “solution in 50% dimethyl sulfoxide (without test compound)” was used instead of “solution of test compound in 50% dimethyl sulfoxide”.
A concentration dependency curve of the test compound was drawn with the percentage obtained by dividing the reaction rate of the well added with the test compound (test compound addition group) by the reaction rate of the control group was taken as the GK activity value of the test compound, and the concentration of the test compound at the midpoint between the maximum activity value of the test compound addition group and the control group activity value is shown as EC50 value.

Compound	EC50 [1] [nM]	melting point [°C]
CS(=O)(=O)c1ccc(Oc2ccc3[nH]c(C4=NCC(CC(=O)N5CCOCC5)S4)cc3c2)cn1 (single isomer, unassigned) [Example 69, 5-{[6-(Methylsulfonyl)pyridin-3-yl]oxy}-2-[5-(2-morpholin-4-yl-2-oxoethyl)-4,5-dihydro-1,3-thiazol-2-yl]-1H-indole]	28	167 to 168
CNC(=O)CC1CN=C(c2cc3cc(Oc4ccc(S(C)(=O)=O)nc4)ccc3[nH]2)S1 (single isomer, unassigned) [Example 78, N-Methyl-2-[2-(5-{[6-(methylsulfonyl)pyridin-3-yl]oxy}-1H-indol-2-yl)-4,5-dihydro-1,3-thiazol-5-yl]acetamide]	80	178 to 180
CS(=O)(=O)c1ccc(Oc2cc(OC3CCOCC3)c3[nH]c(C4=NCC(CCO)S4)cc3c2)cc1 (stereo not shown) [Example 2, 2-(2-{5-[4-(Methylsulfonyl)phenoxy]-7-(tetrahydro-2H-pyran-4-yloxy)-1H-indol-2-yl}-4,5-dihydro-1,3-thiazol-5-yl)ethanol]	18	116 to 117
CC(C)(O)CC1CN=C(c2cc3cc(Oc4ccc(S(C)(=O)=O)cc4)cc(OC4CCOCC4)c3[nH]2)S1 (stereo not shown) [Example 3, 2-Methyl-1-(2-{5-[4-(methylsulfonyl)phenoxy]-7-(tetrahydro-2H-pyran-4-yloxy)-1H-indol-2-yl}-4,5-dihydro-1,3-thiazol-5-yl)propan-2-ol]	15	163 to 164
COCc1ccc(Oc2cc(OC3CCOCC3)c3[nH]c(C4=NCC(CCO)S4)cc3c2)cn1 (stereo not shown) [Example 7, 2-{2-[5-{[6-(Methoxymethyl)pyridin-3-yl]oxy}-7-(tetrahydro-2H-pyran-4-yloxy)-1H-indol-2-yl]-4,5-dihydro-1,3-thiazol-5-yl}ethanol]	14	
COCc1ccc(Oc2cc(OC3CCOCC3)c3[nH]c(C4=NCC(CC(C)(C)O)S4)cc3c2)cn1 (stereo not shown) [Example 8, 1-{2-[5-{[6-(Methoxymethyl)pyridin-3-yl]oxy}-7-(tetrahydro-2H-pyran-4-yloxy)-1H-indol-2-yl]-4,5-dihydro-1,3-thiazol-5-yl}-2-methylpropan-2-ol]	18	108 to 110
CC(C)(O)CC1CN=C(c2cc3cc(Oc4ccc(S(C)(=O)=O)cn4)cc(OC4CCOCC4)c3[nH]2)S1 (stereo not shown) [Example 14, 2-Methyl-1-{2-[5-{[5-(methylsulfonyl)pyridin-2-yl]oxy}-7-(tetrahydro-2H-pyran-4-yloxy)-1H-indol-2-yl]-4,5-dihydro-1,3-thiazol-5-yl}propan-2-ol]	61	129 to 130
CNC(=O)CC1CN=C(c2cc3cc(Oc4ccc(S(C)(=O)=O)cn4)cc(OC4CCOCC4)c3[nH]2)S1 (stereo not shown) [Example 17, N-Methyl-2-{2-[5-{[5-(methylsulfonyl)pyridin-2-yl]oxy}-7-(tetrahydro-2H-pyran-4-yloxy)-1H-indol-2-yl]-4,5-dihydro-1,3-thiazol-5-yl}acetamide]	90	170 to 172
COCCOCc1ccc(Oc2cc(OC3CCOCC3)c3[nH]c(C4=NCC(CCO)S4)cc3c2)cn1 (stereo not shown) [Example 20, 2-{2-[5-({6-[(2-Methoxyethoxy)methyl]pyridin-3-yl}oxy)-7-(tetrahydro-2H-pyran-4-yloxy)-1H-indol-2-yl]-4,5-dihydro-1,3-thiazol-5-yl}ethanol]	27	
CS(=O)(=O)Cc1ccc(Oc2cc(OC3CCOCC3)c3[nH]c(C4=NCC(CCO)S4)cc3c2)cn1 (stereo not shown) [Example 24, 2-{2-[5-({6-[(Methylsulfonyl)methyl]pyridin-3-yl}oxy)-7-(tetrahydro-2H-pyran-4-yloxy)-1H-indol-2-yl]-4,5-dihydro-1,3-thiazol-5-yl}ethanol]	19	
CS(=O)(=O)c1ccc(Oc2cc(OC3CCOCC3)c3[nH]c(C4=NCC(CC(=O)NC5CC5)S4)cc3c2)cn1 (stereo not shown) [Example 37, N-Cyclopropyl-2-{2-[5-{[6-(methylsulfonyl)pyridin-3-yl]oxy}-7-(tetrahydro-2H-pyran-4-yloxy)-1H-indol-2-yl]-4,5-dihydro-1,3-thiazol-5-yl}acetamide]	16	175 to 176
CCNC(=O)CC1CN=C(c2cc3cc(Oc4ccc(S(C)(=O)=O)nc4)cc(OC4CCOCC4)c3[nH]2)S1 (stereo not shown) [Example 42, N-Ethyl-2-{2-[5-{[6-(methylsulfonyl)pyridin-3-yl]oxy}-7-(tetrahydro-2H-pyran-4-yloxy)-1H-indol-2-yl]-4,5-dihydro-1,3-thiazol-5-yl}acetamide]	21	197 to 198
CNC(=O)CC1CN=C(c2cc3cc(Oc4ccc(S(C)(=O)=O)nc4)ccc3[nH]2)S1 (stereo not shown) [Example 53, N-Methyl-2-[2-(5-{[6-(methylsulfonyl)pyridin-3-yl]oxy}-1H-indol-2-yl)-4,5-dihydro-1,3-thiazol-5-yl]acetamide]	130	150 to 152
CCNC(=O)CC1CN=C(c2cc3cc(Oc4ccc(S(C)(=O)=O)nc4)ccc3[nH]2)S1 (stereo not shown) [Example 54, N-Ethyl-2-[2-(5-{[6-(methylsulfonyl)pyridin-3-yl]oxy}-1H-indol-2-yl)-4,5-dihydro-1,3-thiazol-5-yl]acetamide]	120	216 to 217
CN(C)C(=O)CC1CN=C(c2cc3cc(Oc4ccc(S(C)(=O)=O)nc4)ccc3[nH]2)S1 (stereo not shown) [Example 55, N,N-Dimethyl-2-[2-(5-{[6-(methylsulfonyl)pyridin-3-yl]oxy}-1H-indol-2-yl)-4,5-dihydro-1,3-thiazol-5-yl]acetamide]	180	162 to 164
CS(=O)(=O)c1ccc(Oc2ccc3[nH]c(C4=NCC(CC(=O)NCC(F)(F)F)S4)cc3c2)cn1 (stereo not shown) [Example 56, 2-[2-(5-{[6-(Methylsulfonyl)pyridin-3-yl]oxy}-1H-indol-2-yl)-4,5-dihydro-1,3-thiazol-5-yl]-N-(2,2,2-trifluoroethyl)acetamide]	73	234 to 235
COCCNC(=O)CC1CN=C(c2cc3cc(Oc4ccc(S(C)(=O)=O)nc4)ccc3[nH]2)S1 (stereo not shown) [Example 57, N-(2-Methoxyethyl)-2-[2-(5-{[6-(methylsulfonyl)pyridin-3-yl]oxy}-1H-indol-2-yl)-4,5-dihydro-1,3-thiazol-5-yl]acetamide]	160	155 to 156
